Measured values reported in patent US9446093B2, “Injectable aqueous ophthalmic composition and method of use therefor” (Alcon Research Ltd., priority 2009, dated 2016).

Assay: pKa, charge and solubility of the amine groups of the polymer

Poly-L-lysine
pKa value of the amine groups: approximately 10.5
